From patent publication US20260041732A1, “USE OF APELIN FOR THE TREATMENT OF LYMPHEDEMA” (INSTITUT NATIONAL DE LA SANTE ET DE LA RECHERCHE MEDICALE, priority 2022, published 2026)

B1: VEGF-C: vascular endothelial growth factor C; media containing VEGF-C used as positive control on HDLEC (protein, listed as Homo sapiens)
chain: MHLLGFFSVACSLLAAALLPGPREAPAAAAAFESGLDLSDAEPDAGEATAYASKDLEEQLRSVSSVDELMTVLYPEYWKMYKCQLRKGGWQHNREQANLNSRTEETIKFAAAHYNTEILKSIDNEWRKTQCMPREVCIDVGKEFGVATNTFFKPPCVSVYRCGGCCNSEGLQCMNTSTSYLSKTLFEITVPLSQGPKPVTISFANHTSCRCMSKLDVYRQVHSIIRRSLPATLPQCQAANKTCPTNYMWNNHICRCLAQEDFMFSSDAGDDSTDGFHDICGPNKELDEETCQCVCRAGLRPASCGPHKELDRNSCQCVCKNKLFPSQCGANREFDENTCQCVCKRTCPRNQPLNPGKCACECTESPQKCLLKGKKFHHQTCSCYRRPCTNRQKACEPGFSYSEEVCRCVPSYWKRPQMS

Tests used:
[1] = system: afferent collecting lymphatic vessels to the popliteal lymph node; test: Collecting vessel contraction measures (intravital imaging); assay type: in vivo, mouse; settings: L-NAME in drinking water 7 days
Method: Vessel contraction measurement of afferent collecting lymphatic vessels to the popliteal lymph node (PLN) were performed as described previously (Liao S. et al.). Briefly mice were anesthetized with an intraperitoneal injection of ketamine (100 mg/Kg) and xylazine (10 mg/kg). 6 μL of FITC-Dextran was injected into the footpad of the lower right limb. The skin is carefully removed to expose afferent collecting lymphatic vessels to the PLN. Mouse is then placed into a petri dish and onto the stage of an inverted microscope (Leica, DMi8). 4 videos of 90 sec were acquired per mice and the number of contraction and dilatation (difference between maximum and minimum diameter) was analysed using Fiji software. To assess the effect of Apelin, lentiviral vector was injected into the derm in the lower right limb 7 days before the experiment. For L-NAME study, mice were allowed to drink freely for 7 days.

C57B1/6 female mice [2] = test: Histology of skin sections, Lyve1 and CD31 immunostaining; assay type: in vivo, mouse; settings: lymphedema limb skin
Method: Skin of lymphedema and control limb were collected 2 weeks after surgery and fixed in 10% neutral buffered formalin O/N at 4° C. Tissue are then embedded in paraffin and sectioned on a microtome. 5 μm sections were cut and placed on Superfrost Plus slides. Tissue were deparaffinized, rehydrated and antigen unmasking was realized with pH 9 Tris solution (H-3301, Vector Laboratories) 5 min three times in a microwave. After cooling, slides were washed in PBS and then blocked with 5% BSA solution at room temperature in humid chamber. Sections were incubated with primary antibodies O/N at 4° C. (Goat anti-murine Lyvel, R&D AF2125; rabbit anti-CD31, abcam Ab28364) and washed three times in PBS. Sections were incubated with the corresponding secondary antibodies conjugated to Alexa-488 or -594 for 1h at room temperature au 1/400 dilution. DNA was stained with DAPI. Slides were mounted with Dako Fluorescence Mounting Medium (S3023). Images were acquired a fluorescent inverted microscope (Leica, DMi8). Images were analysed with Fiji software.

C57B1/6 female mice [3] = test: Lymphangiography with FITC-Dextran in lymphedema mouse model; assay type: in vivo; settings: two weeks after surgery
Method: Two weeks after surgery, mice were anesthetized with an intraperitoneal injection of ketamine (100 mg/kg) (Zoletil 100, Virbac) and xylazine (10 mg/kg) (Rompun 2%, Bayer). FITC-Dextran ([…], 2 mg/mL, Sigma) was injected into the footpad of lymphedema and control limb. The fluorescent molecule was taken up by the lymphatics and excluded from the blood vessels. After 5 min, the skin was analyzed under the modular stereo microscope discovery. V12 stereo (Zeiss).

C57B1/6 female mice [4] = test: Mouse model of secondary lymphedema, limb size measured using caliper; assay type: in vivo; settings: LV-apelin treated mice submitted to L-NAME treatment
Method: Mouse procedures were performed in accordance with EU and national regulation. C57B1/6 mouse were provided by Envigo. All experiments have been approved by the local branch Inserm Rangueil-Purpan of the Midi-Pyrénées ethics committee. Secondary lymphedema was established as previously described (Morfoisse et al. 2018). Briefly, lymphedema was established in the left upper limb of 6 weeks-old C57B1/6 female mice. A partial mastectomy of the second mammary gland is performed in association with axillary and brachial lymphadenectomy. Limb size was measured over time in the axillary region using caliper. Mice sustained edema for a period of 2 weeks. The day of the surgery, PBS or apelin lentiviral vector were injected in intradermic in the lymphedema limb (3 injections of 4 μL). […] For L-NAME (N^G-nitro-L-arginine methyl ester) (Sigma) treatment, L-NAME was resuspended in water (1 mg/ml) and mice were allowed to drink freely for 7 days.

C57B1/6 female mice [5] = test: Evaluation of dermis fibrosis, Masson's trichrome coloration; assay type: in vivo, mouse; settings: lymphedema limb skin
Method: Dermis fibrosis was evaluated with Masson's trichrome coloration (MST-100T, Cliniscience). Skin sections were deparraffinized and tissue were stained according the manufacturer's recommendations. Images were acquired on a nanozoomer slide scanner. Dermis size quantification was performed using at least 10 measurements of the length between epidermis and hypodermis per field.

[6] = system: Human dermal lymphatic endothelial cells (HDLEC); test: Bulk RNA-sequencing, differential gene expression and GO analysis; assay type: cell-based; settings: compared to WT
Method: Human dermal lymphatic endothelial cells (HDLEC) (single donor, juvenile foreskin, Promocell, C-12216, >95% of the cells are CD31 positive and podoplanin positive) were cultured in Endothelial Cell Media MV2 (EGM-MV2, Promocell, C-22121). NIH3T3 were cultured in Dulbecco's modified Eagle's medium (DMEM, Sigma, D6429) supplemented with 10% fetal bovine serum (FBS, Gibco, 10270-06) and 1% penicillin-streptomycin. Endothelial cells were used at passage 3-6 and human fibroblasts were used at passage 4-7. Cells were cultured at 37° C. in a 5% CO2 incubator. Culture medium was changed 3 times a week, and the cells were passaged ⅓. For collecting conditioned media, NIH3T3 were grown in 10 cm dishes, after reaching confluence, medium was removed and the cells were washed once with PBS. NIH3T3 were cultured overnight in 5 mL reduced serum medium optiMEM (Gibco), the medium was then collected and used for experiments. HDLEC were treated with 50% conditioned media/50% MV2-05% FBS. Total RNA from HDLEC transduced or not with Apelin Lentivector were prepared using the RNeasy mini kit (Qiagen 74106). Total RNA were then subjected to ribosomal-RNA depleted RNA sequencing (RNA-Seq) protocol performed by Genewiz company using Illumina HiSeq, PE 2×150 configuration. Sequence reads were trimmed to remove possible adapter sequences and nucleotides with poor quality using Trimmomatic v.0.36. The trimmed reads were mapped to the Homo sapiens GRCh38 reference genome available on ENSEMBL using the STAR aligner v.2.5.2b. The STAR aligner is a splice aligner that detects splice junctions and incorporates them to help align the entire read sequences. BAM files were generated as a result of this step. Unique gene hit counts were calculated by using feature Counts from the Subread package v.1.5.2. The hit counts were summarized and reported using the gene_id feature in annotation file. Only unique reads that fell within exon regions were counted. Distribution of read counts in libraries were examined before and after normalization. The original read counts were normalized to adjust for various factors such as variations of sequencing yield between samples. These normalized read counts were used to accurately determine differentially expressed genes. Data quality assessments were performed to detect any samples that are not representative of their group, and thus, may affect the quality of the analysis. The overall similarity among samples were assessed by the Euclidean distance between samples. This method was used to examine which samples are similar/different to each other and if they fit to the expectation from the experiment design. The shorter the distance, the more closely related the samples are. Samples were then clustered by using the distance. A principal component analysis was also performed to reveal the similarity between samples based on the distance matrix. After extraction of gene hit counts, the gene hit counts table was used for downstream differential expression analysis. Using DESeq2, a comparison of gene expression between Apelin transduced LEC against non-transduced LEC was performed. The Wald test was used to generate p-values and log2 fold changes. […] The global transcriptional change across the two groups compared was visualized by a volcano plot. Each data point in the volcano plot represents a gene. The log2 fold change of each gene is represented on the x-axis and the log10 of its adjusted p-value is on the y-axis.

[7] = system: Human dermal lymphatic endothelial cells (HDLEC); test: Immunoblotting of AKT, ERK and eNOS phosphorylation; assay type: cell-based; settings: conditioned media
Method: Human dermal lymphatic endothelial cells (HDLEC) (single donor, juvenile foreskin, Promocell, C-12216, >95% of the cells are CD31 positive and podoplanin positive) were cultured in Endothelial Cell Media MV2 (EGM-MV2, Promocell, C-22121). NIH3T3 were cultured in Dulbecco's modified Eagle's medium (DMEM, Sigma, D6429) supplemented with 10% fetal bovine serum (FBS, Gibco, 10270-06) and 1% penicillin-streptomycin. Endothelial cells were used at passage 3-6 and human fibroblasts were used at passage 4-7. Cells were cultured at 37° C. in a 5% CO2 incubator. Culture medium was changed 3 times a week, and the cells were passaged ⅓. For collecting conditioned media, NIH3T3 were grown in 10 cm dishes, after reaching confluence, medium was removed and the cells were washed once with PBS. NIH3T3 were cultured overnight in 5 mL reduced serum medium optiMEM (Gibco), the medium was then collected and used for experiments. HDLEC were treated with 50% conditioned media/50% MV2-05% FBS.
Cells were scrapped and lysed in RIPA buffer (RIPA 2X, Biotech RB4476) supplemented with phosphatase inhibitor (PhosSTOP Easypack, Roche0490687001) and protease inhibitors (protease inhibitor cocktail, Sigma Aldrich). Lysates were centrifuged at 13500 g for 10 minutes at 4° C. Supernatants were then collected and mix with Laemmli buffer containing dithiothreitol (DTT 1 mM). Protein were resolved on 4-15% SDS-PAGE gels and transferred to nitrocellulose membrane (Trans-Blot Turbo RTA transfer kit, #1704271, Biorad). Membranes were blocked for 1h at room temperature in 5% BSA-TBS-T (TBS-0.1% Tween 20) and probed with primary antibody overnight at 4° C. Antibody used are the following: Phospho AKT: AKT-p ser473 (CS #4060S), AKT: santa cruz H136 (S8312), Phospho ERK: ERK1/2-p (MAPKp42/44) (Thr202/Thr204) (cell signalling #9106), ERK ERK1/2-(MAPKp42/44) (Thr202/Thr204) (cell signalling #9102), Phospho eNOS (cell signalling #9571S), eNOS (cell signalling #5880S), E2F8 (Abcam, AB109596), VEGFR3 (RID system AF349), Phospho-VEGFR3 (Affinity AF3676), CCBE1 (Sigma SAB1402017).
After three washes in TBS-T, membranes were probed with HRP-conjugated secondary antibodies at 1/10000 dilution. Signals were visualized with chemiluminescence detection reagent (Sigma) on a Chemidoc (Biorad) digital acquisition system.

Molecule | effect on apelin-stimulated collector dilatation [1] | lymphatic vessel dilatation (vessel area / diameter) (C57B1/6 female mice [2]) | lymphatic vessel morphology / remodelling (lymphangiography) (C57B1/6 female mice [3]) | effect on apelin benefit on lymphedema (limb diameter) (C57B1/6 female mice [4]) | fibrosis (C57B1/6 female mice [5]) | expression of genes related to VEGFC maturation (ADAMTS2, CCBE1) [6] | eNOS phosphorylation ([7]; HDLEC) | AKT activation (phosphorylation) ([7]; 24 h time course) | ERK activation ([7]; 24 h time course)
COC(=O)[C@@H](N)CCCNC(=N)N[N+](=O)[O-] [L-NAME, N^G-nitro-L-arginine methyl ester] | completely reversed | inhibited | reverse apelin effect on lymphatic vascular network | reversed the beneficial effect of apelin on lymphedema | no effect on fibrosis |  |  |  | 
B1 |  |  |  |  |  | improved | observed | strong activation | strong activation
